Legend:
[1] = molecular target: His-tagged KRAS G12D protein (Homo sapiens, UniProt P01116, G12D); test: KRAS G12D TR-FRET Assay; assay type: binding; settings: biotinylated KRPep-2d substrate, 10 μM GDP;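 also: europium anti-His antibody paired with streptavidin-d2 as FRET partners, initial 30 min incubation, then peptide 1 h and detection reagents 1 h, all at room temperature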
[2] = molecular target: GDP-bound KRAS protein (aa 1-169), containing both G12D and C118A amino acid substitutions (Homo sapiens, UniProt P01116, C118A/G12D); test: KRAS G12D Coupled Nucleotide Exchange Assay; assay type: biochemical; settings: 2 h compound pre-incubation; SOS-mediated nucleotide exchange, cRAF AlphaScreen readout;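 also: IC50 obtained by fitting the AlphaScreen signal with a four-parameter logistic curve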
[3] = tested on: Phosphorylation of ERK1/2 in A-427 cells; test: Phospho-ERK1/2 MSD Assay; assay type: cell-based; settings: Homo sapiens, A-427, 2 h, 2 h compound treatment, read-out: pERK (A427 cells) IC50
Method: A-427 (ATCC® HTB-53™) cells were cultured in RPMI 1640 Medium (ThermoFisher Scientific 11875093) containing 10% fetal bovine serum (ThermoFisher Scientific 16000044) and 1× penicillin-streptomycin-glutamine (ThermoFisher Scientific 10378016). Sixteen hours prior to compound treatment, A-427 cells were seeded in 96-well cell culture plates at a density of 25,000 cells/well and incubated at 37° C., 5% CO2. A compound dose-response titration was diluted in growth media, added to appropriate wells of a cell culture plate, and then incubated at 37° C., 5% CO2 for 2 h. Following compound treatment, cells were washed with ice-cold Dulbecco's phosphate-buffered saline, no Ca^2+ or Mg^2+ (ThermoFisher Scientific 14190144), and then lysed in RIPA buffer (50 mM Tris-HCl pH 7.5, 1% Igepal, 0.5% sodium deoxycholate, 150 mM NaCl, and 0.5% sodium dodecyl sulfate) containing protease inhibitors (Roche 4693132001) and phosphatase inhibitors (Roche 4906837001). Phosphorylation of ERK1/2 in compound-treated lysates was assayed using Phospho-ERK1/2 Whole Cell Lysate kits (Meso Scale Discovery K151DWD) according to the manufacturer's protocol. Assay plates were read on a Meso Scale Discovery Sector Imager 6000, and data were analyzed using a 4-parameter logistic model to calculate IC50 values.

GDP-bound KRAS protein (aa 1-169), containing both G12D and C118A amino acid substitutions, sequence (P01116 1-169 isoform P01116-2 G12D/C118A): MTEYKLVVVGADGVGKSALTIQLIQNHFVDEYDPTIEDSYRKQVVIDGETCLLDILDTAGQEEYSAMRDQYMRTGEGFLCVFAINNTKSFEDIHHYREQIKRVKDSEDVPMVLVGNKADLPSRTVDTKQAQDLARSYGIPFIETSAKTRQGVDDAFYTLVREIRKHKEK
His-tagged KRAS G12D protein, sequence (P01116 1-188 isoform P01116-2 G12D): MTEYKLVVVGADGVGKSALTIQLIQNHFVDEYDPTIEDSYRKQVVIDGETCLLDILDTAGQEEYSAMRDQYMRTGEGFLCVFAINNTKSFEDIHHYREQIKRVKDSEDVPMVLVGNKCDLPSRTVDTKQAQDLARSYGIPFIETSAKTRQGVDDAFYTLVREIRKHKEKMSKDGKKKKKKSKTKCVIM

In the case of `Nc1nc2c(-c3cc4nc(OC[C@@]56CCCN5C[C@H](F)C6)nc(N5[C@@H]6CC[C@H]5CNC6)c4cc3F)ccc(F)c2s1` [Example 138, 4-(4-((1R,5S)-3,8-diazabicyclo[3.2.1]octan-8-yl)-6-fluoro-2-(((2R,7aS)-2-fluorotetrahydro-1H-pyrrolizin-7a(5H)-yl)methoxy)quinazolin-7-yl)-7-fluorobenzo[d]thiazol-2-amine], the IC50 [1] is reported as 0.03 µM, the “Avg 2 h Coupled Exchange IC50” value [2] is reported as 0.011 µM and the IC50 [3] is reported as 1.7 µM.
`Nc1nc2c(-c3c(Cl)cc4c(N5CCNCC5)nc(OC[C@@H]5CCCN5CCF)nc4c3F)cccc2s1` [Example 56, 4-(6-chloro-8-fluoro-2-(((S)-1-(2-fluoroethyl)pyrrolidin-2-yl)methoxy)-4-(piperazin-1-yl)quinazolin-7-yl)benzo[d] thiazol-2-amine] was tested, and the IC50 [1] was 0.266 µM, the “Avg 2 h Coupled Exchange IC50” value [2] was 0.118 µM and the IC50 [3] was 5.67 µM.
In the case of `Nc1nc2c(-c3c(Cl)cc4c(N5C[C@H]6CC[C@@H](C5)N6)nc(OC[C@@]56CCCN5C[C@H](F)C6)nc4c3F)ccc(F)c2s1` [Example 137, 4-(4-((1R,5S)-3,8-diazabicyclo[3.2.1]octan-3-yl)-6-chloro-8-fluoro-2-(((2R,7aS)-2-fluorotetrahydro-1H-pyrrolizin-7a(5H)-yl)methoxy)quinazolin-7-yl)-7-fluorobenzo[d]thiazol-2-amine], the IC50 [1] is reported as 0.003 µM, the “Avg 2 h Coupled Exchange IC50” value [2] is reported as 0.002 µM and the IC50 [3] is reported as 0.008 µM.
With `Nc1nc2c(-c3c(Cl)cc4c(N5C[C@@H]6CC[C@H]5CN6)nc(OC[C@@]56CCCN5C[C@H](F)C6)nc4c3F)ccc(F)c2s1` [Example 38, 4-(4-((15,4S)-2,5-diazabicyclo[2.2.2]octan-2-yl)-6-chloro-8-fluoro-2-(((2R,7aS)-2-fluorotetrahydro-1H-pyrrolizin-7a(5H)-yl)methoxy)quinazolin-7-yl)-7-fluorobenzo[d] thiazol-2-amine] the IC50 [1] was 0.006 µM, the “Avg 2 h Coupled Exchange IC50” value [2] was 0.013 µM and the IC50 [3] was 1.09 µM.
With `Nc1nc2c(-c3c(Cl)cc4c(N5[C@@H]6CNC[C@H]5COC6)nc(OC[C@]56CCCN5C[C@H](F)C6)nc4c3F)ccc(F)c2s1` [Example 124, 4-(4-((1R,5S)-3-oxa-7,9-diazabicyclo[3.3.1]nonan-9-yl)-6-chloro-8-fluoro-2-(((2R,7aR)-2-fluorotetrahydro-1H-pyrrolizin-7a(5H)-yl)methoxy)quinazolin-7-yl)-7-fluorobenzo[d]thiazol-2-amine] the IC50 [1] was 0.007 µM, the “Avg 2 h Coupled Exchange IC50” value [2] was 0.006 µM and the IC50 [3] was 0.287 µM.
With `CN1C[C@H](F)C[C@H]1COc1nc(N2[C@@H]3CC[C@H]2CNC3)c2cc(Cl)c(-c3ccc(F)c4sc(N)nc34)c(F)c2n1` [Example 3, 4-(4-((1R,5S)-3,8-diazabicyclo[3.2.1]octan-8-yl)-6-chloro-8-fluoro-2-(((2S,4R)-4-fluoro-1-methylpyrrolidin-2-yl)methoxy)quinazolin-7-yl)-7-fluorobenzo[d] thiazol-2-amine] the IC50 [1] was 0.006 µM, the “Avg 2 h Coupled Exchange IC50” value [2] was 0.005 µM and the IC50 [3] was 0.194 µM.
For `CN1CCC[C@H]1CCOc1nc(N2C[C@H]3C[C@@H](C2)N3)c2cc(Cl)c(-c3ccc(F)c4sc(N)nc34)c(F)c2n1` [Example 11, 4-(4-((1R,5S)-3,6-diazabicyclo[3.1.1]heptan-3-yl)-6-chloro-8-fluoro-2-(2-((S)-1-methylpyrrolidin-2-yl)ethoxy)quinazolin-7-yl)-7-fluorobenzo[d] thiazol-2-amine], the IC50 [1] was 0.029 µM, the “Avg 2 h Coupled Exchange IC50” value [2] was 0.011 µM and the IC50 [3] was 8.25 µM.
In the case of `Nc1nc2c(-c3c(Cl)cc4c(N5C[C@H]6CC[C@@H](C5)N6)nc(OC[C@]56CCCN5C[C@H](F)C6)nc4c3F)ccc(F)c2s1` [Example 136, 4-(4-((1R,5S)-3,8-diazabicyclo[3.2.1]octan-3-yl)-6-chloro-8-fluoro-2-(((2R,7aR)-2-fluorotetrahydro-1H-pyrrolizin-7a(5H)-yl)methoxy)quinazolin-7-yl)-7-fluorobenzo[d]thiazol-2-amine], the IC50 [1] is reported as 0.001 µM, the “Avg 2 h Coupled Exchange IC50” value [2] is reported as 0.001 µM and the IC50 [3] is reported as 0.033 µM.
`Nc1nc2c(-c3c(Cl)cc4c(N5CCNCC5)nc(OC[C@]56CCCN5C[C@H](F)C6)nc4c3F)cccc2s1` [Example 46, 4-(6-chloro-8-fluoro-2-(((2R,7aR)-2-fluorotetra-hydro-1H-pyrrolizin-7a(5H)-yl)methoxy)-4-(piperazin-1-yl)quinazolin-7-yl)benzo[d] thiazol-2-amine] showed an IC50 [3] of 3.95 µM.
With `Nc1nc2c(-c3ccc4c(N5C[C@H]6CC[C@@H](C5)N6)nc(OC[C@@]56CCCN5C[C@H](F)C6)nc4c3F)ccc(F)c2s1` [Example 140, 4-(4-((1R,5S)-3,8-diazabicyclo[3.2.1]octan-3-yl)-8-fluoro-2-(((2R,7aS)-2-fluorotetrahydro-1H-pyrrolizin-7a(5H)-yl)methoxy)quinazolin-7-yl)-7-fluorobenzo[d]thiazol-2-amine] the IC50 [1] was 0.012 µM and the “Avg 2 h Coupled Exchange IC50” value [2] was 0.003 µM.
For `CN1CCC[C@H]1COc1nc(N2CCCNC(=O)C2)c2cc(Cl)c(-c3cccc4sc(N)nc34)c(F)c2n1` [Example 22, 4-(7-(2-aminobenzo[d]thiazol-4-yl)-6-chloro-8-fluoro-2-(((S)-1-methylpyrrolidin-2-yl)methoxy)quinazolin-4-yl)-1,4-diazepan-2-one], the IC50 [1] was 0.168 µM and the “Avg 2 h Coupled Exchange IC50” value [2] was 0.114 µM.
In the case of `CC(=O)N1CCC[C@H]1COc1nc(N2CCNCC2)c2cc(Cl)c(-c3cccc4sc(N)nc34)c(F)c2n1` [Example 71, 1-((2S)-2-(((7-(2-aminobenzo[d]thiazol-4-yl)-6-chloro-8-fluoro-4-(piperazin-1-yl)quinazolin-2-yl)oxy)methyl)pyrrolidin-1-yl)ethan-1-one], the IC50 [1] is reported as 3.98 µM and the “Avg 2 h Coupled Exchange IC50” value [2] is reported as 2.53 µM.
In the case of `CC1=C(c2nc(OC[C@@H]3CCCN3C)nc3c(F)c(-c4cccc5sc(N)nc45)c(Cl)cc23)CCNC1` [Example 147, 4-(6-chloro-8-fluoro-4-(5-methyl-1,2,3,6-tetrahydropyridin-4-yl)-2-(((S)-1-methylpyrrolidin-2-yl)methoxy)quinazolin-7-yl)benzo[d]thiazol-2-amine], the IC50 [1] is reported as 11.2 µM and the “Avg 2 h Coupled Exchange IC50” value [2] is reported as 3.55 µM.
In the case of `C[C@@H](CN(C)C)Oc1nc(N2CCNCC2)c2cc(Cl)c(-c3cccc4sc(N)nc34)c(F)c2n1` [Example 48, 4-(6-chloro-2-(((S)-1-(dimethylamino)propan-2-yl)oxy)-8-fluoro-4-(piperazin-1-yl)quinazolin-7-yl)benzo[d] thiazol-2-amine], the IC50 [1] is reported as 0.159 µM and the “Avg 2 h Coupled Exchange IC50” value [2] is reported as 0.026 µM.
With `Nc1nc2c(-c3c(Cl)cc4c(N5CCNCC5)nc(OC[C@@H]5CCC(=O)N5)nc4c3F)cccc2s1` [Example 68, (5S)-5-(((7-(2-aminobenzo[d]thiazol-4-yl)-6-chloro-8-fluoro-4-(piperazin-1-yl)quinazolin-2-yl)oxy)methyl) pyrrolidin-2-one] the IC50 [1] was 0.829 µM and the “Avg 2 h Coupled Exchange IC50” value [2] was 0.718 µM.
With `CCN1CCC(COc2nc(N3CCNCC3)c3cc(Cl)c(-c4cccc5sc(N)nc45)c(F)c3n2)CC1` [Example 63, 4-(6-chloro-2-((1-ethylpiperidin-4-yl)methoxy)-8-fluoro-4-(piperazin-1-yl)quinazolin-7-yl)benzo[d] thiazol-2-amine] the IC50 [1] was 0.473 µM and the “Avg 2 h Coupled Exchange IC50” value [2] was 0.429 µM.
